Assay results published in ChEMBL document CHEMBL4004848, “Dregamine and tabernaemontanine derivatives as ABCB1 modulators on resistant cancer cells” (Eur J Med Chem, 2017).

Columns and labels:
[1] = biological target: T1, ATP-dependent translocase ABCB1 (Homo sapiens, UniProt P08183); assay: Inhibition of human ABCB1 expressed in mouse L5178Y cells assessed as increase in rhodamine-123 accumulation by measuring side scatter count of cells at 20 uM pretreated for 10 mins followed by rhodamine-123 addition after 20 mins by flow cytometry (reference value: 903); format: cell-based
T1 sequence (P08183 whole entry): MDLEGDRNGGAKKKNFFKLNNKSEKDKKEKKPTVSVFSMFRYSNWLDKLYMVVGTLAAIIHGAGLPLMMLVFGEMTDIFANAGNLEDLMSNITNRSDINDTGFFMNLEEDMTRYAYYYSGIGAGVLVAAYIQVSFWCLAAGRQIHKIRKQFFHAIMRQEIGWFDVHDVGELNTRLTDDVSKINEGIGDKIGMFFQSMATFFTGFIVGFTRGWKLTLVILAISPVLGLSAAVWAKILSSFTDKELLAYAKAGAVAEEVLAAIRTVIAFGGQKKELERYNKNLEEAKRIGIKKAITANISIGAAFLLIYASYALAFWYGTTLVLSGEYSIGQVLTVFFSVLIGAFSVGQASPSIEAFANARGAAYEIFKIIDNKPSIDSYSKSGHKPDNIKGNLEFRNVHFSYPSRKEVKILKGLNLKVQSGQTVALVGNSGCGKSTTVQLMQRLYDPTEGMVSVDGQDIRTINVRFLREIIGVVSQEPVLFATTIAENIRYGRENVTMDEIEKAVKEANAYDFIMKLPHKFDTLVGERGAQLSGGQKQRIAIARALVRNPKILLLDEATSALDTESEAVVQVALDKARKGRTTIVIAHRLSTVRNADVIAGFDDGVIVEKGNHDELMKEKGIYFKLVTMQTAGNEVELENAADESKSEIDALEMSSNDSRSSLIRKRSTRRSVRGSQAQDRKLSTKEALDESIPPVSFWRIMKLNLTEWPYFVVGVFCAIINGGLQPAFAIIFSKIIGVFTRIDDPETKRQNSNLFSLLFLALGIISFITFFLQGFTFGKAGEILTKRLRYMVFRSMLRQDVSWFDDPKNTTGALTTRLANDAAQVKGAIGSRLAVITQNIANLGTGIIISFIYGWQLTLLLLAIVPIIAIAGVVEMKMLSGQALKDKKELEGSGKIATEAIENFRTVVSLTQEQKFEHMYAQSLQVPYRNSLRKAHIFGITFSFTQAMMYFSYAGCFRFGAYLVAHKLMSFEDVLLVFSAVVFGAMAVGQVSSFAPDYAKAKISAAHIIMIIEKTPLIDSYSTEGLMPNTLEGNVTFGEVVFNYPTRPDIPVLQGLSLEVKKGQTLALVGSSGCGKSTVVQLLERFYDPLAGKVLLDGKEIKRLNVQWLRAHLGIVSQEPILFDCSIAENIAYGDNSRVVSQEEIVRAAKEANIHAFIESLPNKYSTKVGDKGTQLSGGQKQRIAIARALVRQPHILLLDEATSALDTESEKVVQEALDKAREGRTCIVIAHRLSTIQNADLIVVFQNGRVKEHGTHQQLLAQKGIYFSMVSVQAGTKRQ

[2] = biological target: T1, ATP-dependent translocase ABCB1; assay: Inhibition of human ABCB1 expressed in mouse L5178Y cells assessed as increase in rhodamine-123 accumulation by measuring forward scatter count of cells at 2 uM pretreated for 10 mins followed by rhodamine-123 addition after 20 mins by flow cytometry (reference value: 2206); format: cell-based
[3] = biological target: T1, ATP-dependent translocase ABCB1; assay: Inhibition of human ABCB1 expressed in mouse L5178Y cells assessed as increase in rhodamine-123 accumulation by measuring forward scatter count of cells at 20 uM pretreated for 10 mins followed by rhodamine-123 addition after 20 mins by flow cytometry (reference value: 2206); format: cell-based
[4] = biological target: T1, ATP-dependent translocase ABCB1; assay: Inhibition of human ABCB1 expressed in mouse L5178Y cells assessed as fluorescence activity ratio at 20 uM pretreated for 10 mins followed by rhodamine-123 addition after 20 mins by flow cytometry; format: cell-based
[5] = biological target: T1, ATP-dependent translocase ABCB1; assay: Inhibition of human ABCB1 expressed in mouse L5178Y cells assessed as fluorescence activity ratio at 2 uM pretreated for 10 mins followed by rhodamine-123 addition after 20 mins by flow cytometry; format: cell-based
L5178Y = assay: Cytotoxicity against mouse L5178Y cells after 24 hrs by MTT assay; format: functional, cell-based
[6] = biological target: T1, ATP-dependent translocase ABCB1; assay: Inhibition of human ABCB1 expressed in mouse L5178Y cells pretreated for 10 mins followed by rhodamine-123 addition after 20 mins by flow cytometry; format: cell-based
NIH3T3 = assay: Cytotoxicity against mouse NIH/3T3 cells after 24 hrs by MTT assay; format: cell-based; details: NIH3T3, 24 h
[7] = biological target: T1, ATP-dependent translocase ABCB1; assay: Inhibition of human ABCB1 expressed in mouse L5178Y cells assessed as increase in rhodamine-123 accumulation by measuring side scatter count of cells at 2 uM pretreated for 10 mins followed by rhodamine-123 addition after 20 mins by flow cytometry (reference value: 903); format: cell-based
[8] = Selectivity index, ratio of IC50 for mouse L5178Y cells to IC50 for human ABCB1 expressed in L5178Y cells
[9] = biological target: T1, ATP-dependent translocase ABCB1; assay: Inhibition of human ABCB1 expressed in mouse L5178Y cells assessed as potentiation of doxorubicin-induced cytotoxicity by measuring combination index at 2:5 doxorubicin to compound ratio after 48 hrs by MTT assay; format: cell-based
[10] = Selectivity index, ratio of IC50 for mouse NIH/3T3 cells to IC50 for mouse L5178Y cells; format: functional
[11] = biological target: T1, ATP-dependent translocase ABCB1; assay: Inhibition of human ABCB1 expressed in mouse L5178Y cells assessed as potentiation of doxorubicin-induced cytotoxicity by measuring combination index at 2:25 doxorubicin to compound ratio after 48 hrs by MTT assay; format: cell-based

Activity [1]	Activity [2]	Activity [3]	Ratio [4]	Ratio [5]	inhibition (INH) [6]	Activity [7]	SMILES	IC50 (L5178Y) [µM]	IC50 (NIH3T3) [µM]	Ratio IC50 [8]	CI [9]	Ratio IC50 [10]	CI [11]
770	2410	2389	2.12	1.04	Dose-dependent effect	793	CC[C@@H]1CN(C)[C@H]2Cc3c([nH]c4ccccc34)/C(=N/NC(N)=O)C[C@H]1[C@@H]2C(=O)OC	> 100	> 100	–	–	–	–
1197	2435	2428	46.7	1.81	Dose-dependent effect	1214	CC[C@H]1CN(C)[C@H]2Cc3c(n(C)c4ccccc34)C(=O)C[C@H]1[C@@H]2C(=O)OC	40.4	> 100	0.45	0.24	–	–
1033	2182	2180	1.38	0.77	Dose-dependent effect	1146	CC[C@@H]1CN(C)[C@H]2Cc3c([nH]c4ccccc34)C(=O)C[C@H]1[C@@H]2C(=O)OC	56.8	> 100	–	–	–	–
1213	2440	2447	18.09	2.42	Dose-dependent effect	1226	C/C=C/C(=O)O[C@H]1C[C@@H]2[C@@H](CC)CN(C)[C@@H](Cc3c1[nH]c1ccccc31)[C@H]2C(=O)OC	90.3	> 100	–	–	–	–
1098	2353	2240	15.35	1.79	Dose-dependent effect	1081	CC[C@H]1CN(C)[C@H]2Cc3c([nH]c4ccccc34)C(=O)C[C@H]1[C@@H]2C(=O)OC	82.4	> 100	–	–	–	–
1203	2450	2442	8.61	1.08	Dose-dependent effect	1209	CC[C@@H]1CN(C)[C@H]2Cc3c([nH]c4ccccc34)[C@@H](OC(=O)C34CC5CC(CC(C5)C3)C4)C[C@H]1[C@@H]2C(=O)OC	> 100	> 100	–	–	–	–
992	2152	1947	56.22	57.99	–	1049	CC[C@H]1CN(C)[C@H]2Cc3c([nH]c4ccccc34)/C(=N/Nc3ccc(Br)cn3)C[C@H]1[C@@H]2C(=O)OC	35.6	86.5	0.89	–	2.43	0.28
1078	–	2611	–	–	–	–	COc1ccc(CCN(C)CCCC(C#N)(c2ccc(OC)c(OC)c2)C(C)C)cc1OC (stereo not drawn)	–	–	–	–	–	–
955	2129	2046	59.65	5.49	Dose-dependent effect	941	CC[C@@H]1CN(C)[C@H]2Cc3c([nH]c4ccccc34)/C(=N/Nc3ccccc3)C[C@H]1[C@@H]2C(=O)OC	11.4	19.9	0.67	–	1.74	0.2
1037	2184	2162	46.47	1.93	Dose-dependent effect	1025	CC[C@H]1CN(C)[C@H]2Cc3c([nH]c4ccccc34)/C(=N/N)C[C@H]1[C@@H]2C(=O)OC	69.8	> 100	0.95	–	–	–
788	2251	2083	1.36	0.88	Dose-dependent effect	793	CC[C@@H]1CN(C)[C@H]2Cc3c([nH]c4ccccc34)[C@@H](O)C[C@H]1[C@@H]2C(=O)OC	55.6	> 100	0.66	0.4	–	–
797	2212	2199	5.18	1.03	Dose-dependent effect	809	CC[C@H]1CN(C)[C@H]2Cc3c([nH]c4ccccc34)[C@@H](O)C[C@H]1[C@@H]2C(=O)OC	> 100	> 100	–	–	–	–
765	2283	2265	78.79	10.28	Dose-dependent effect	793	CC[C@@H]1CN(C)[C@H]2Cc3c([nH]c4ccccc34)/C(=N/Nc3cnccn3)C[C@H]1[C@@H]2C(=O)OC	63.9	> 100	–	0.31	–	–
1204	2436	2449	12.1	0.95	Dose-dependent effect	1197	CC[C@H]1CN(C)[C@H]2Cc3c(n(C(=O)c4cccc(C)c4)c4ccccc34)C(=O)C[C@H]1[C@@H]2C(=O)OC	> 100	> 100	–	–	–	–
1192	2415	2440	52.93	2.56	Dose-dependent effect	1214	CC[C@H]1CN(C)[C@H]2Cc3c(n(CCN(CC)CC)c4ccccc34)C(=O)C[C@H]1[C@@H]2C(=O)OC	67.1	> 100	–	–	–	–
765	2294	2225	70.82	84.19	–	804	CC[C@@H]1CN(C)[C@H]2Cc3c([nH]c4ccccc34)/C(=N/Nc3ccc(Br)cn3)C[C@H]1[C@@H]2C(=O)OC	29.2	83.2	0.78	–	2.85	0.19
912	2156	2182	3.87	0.85	Dose-dependent effect	958	CC[C@H]1CN(C)[C@H]2Cc3c([nH]c4ccccc34)/C(=N/O)C[C@H]1[C@@H]2C(=O)OC	13	35.8	0.77	–	2.75	–
781	2237	2304	7.31	1.26	Dose-dependent effect	789	CC[C@@H]1CN(C)[C@H]2Cc3c([nH]c4ccccc34)/C(=N/O)C[C@H]1[C@@H]2C(=O)OC	60.1	> 100	0.7	–	–	0.36
1038	2227	2229	60.79	8.49	Dose-dependent effect	1058	CC[C@H]1CN(C)[C@H]2Cc3c([nH]c4ccccc34)/C(=N/Nc3cnccn3)C[C@H]1[C@@H]2C(=O)OC	75	> 100	0.88	0.1	–	–
918	2191	2172	18.46	1.32	Dose-dependent effect	927	CC[C@@H]1CN(C)[C@H]2Cc3c([nH]c4ccccc34)/C(=N/N)C[C@H]1[C@@H]2C(=O)OC	46.6	95	0.96	–	1.36	–
756	2312	2380	2.24	1.16	Dose-dependent effect	778	CC[C@H]1CN(C)[C@H]2Cc3c([nH]c4ccccc34)/C(=N/NC(N)=O)C[C@H]1[C@@H]2C(=O)OC	> 100	> 100	–	–	–	–
